One test deals with Enterococcus faecalis. Briefly: Antimicrobial activity against Enterococcus faecalis ATCC 29212 assessed as growth inhibition at 0.005 to 5 mg/ml after 24-48 hr by broth microdilution technique. The format is functional, organism-based.
The subject of a further test is Escherichia coli. The experiment in a line: Antimicrobial activity against Escherichia coli ATCC […] assessed as growth inhibition after 24-48 hr by broth microdilution technique. Type of test: functional.
The test system of another test is Staphylococcus aureus. Briefly: Antimicrobial activity against Staphylococcus aureus ATCC 6538-P assessed as growth inhibition after 24-48 hr by broth microdilution technique. The format is functional.
The test system of the next test is Bacillus subtilis. The experiment in a line: Antimicrobial activity against Bacillus subtilis ATCC 6633 assessed as growth inhibition after 24-48 hr by broth microdilution technique. The format is functional.
A further test has as its system Salmonella typhimurium. Briefly: Antimicrobial activity against Salmonella enterica subsp. enterica serovar Typhimurium CCM 5445 assessed as growth inhibition after 24-48 hr by broth microdilution technique. Type of test: functional.
The next test relates to Candida albicans. The experiment in a line: Antimicrobial activity against Candida albicans ATCC 10239 assessed as growth inhibition after 24-48 hr by broth microdilution technique. The format is functional.
In the next test the test system is Klebsiella pneumoniae. The experiment in a line: Antimicrobial activity against Klebsiella pneumoniae CCM 2318 assessed as growth inhibition after 24 to 48 hr by broth microdilution technique. Type of test: functional.
The test system of a further test is Pseudomonas aeruginosa. The experiment in a line: Antimicrobial activity against Pseudomonas aeruginosa ATCC 27853 assessed as growth inhibition after 24-48 hr by broth microdilution technique. Type of test: functional.

These results are taken from ChEMBL document CHEMBL3046190, “Acid promoted intramolecular formation of 3,5-anhydro-1,4-furano-7-ulose derivatives via the Wittig-cyclization procedure and their antimicrobial properties” (2013).

Values after ≈ are worked out from the molar mass of the structure shown. Active and inactive are the calls of the source. The calls are words filed in the database; no cut-off is given here.

As for `COC(C)(CC1O[C@H]2[C@H]3O[C@@H](C(Cl)(Cl)Cl)O[C@H]3O[C@H]12)OC` (stereo partly drawn), the “growth inhibition (GI)” value in the test with Enterococcus faecalis was “inactive”. Further, the MIC in the test with Escherichia coli turned out to be 500 µg/mL (≈ 1.38 mM); in the test on Bacillus subtilis, 2500 µg/mL (≈ 6.88 mM); in the test on Klebsiella pneumoniae, 2500 µg/mL (≈ 6.88 mM); in the test on Pseudomonas aeruginosa, 500 µg/mL (≈ 1.38 mM). In addition, the MIC result in the test with Staphylococcus aureus, in the test on Salmonella typhimurium and in the test with Candida albicans was “inactive” in each case.

Regarding `COC(C)(CC1O[C@@H]2[C@H]3O[C@@H](C(Cl)(Cl)Cl)O[C@H]3O[C@H]12)OC` (stereo partly drawn), the “growth inhibition (GI)” value with Enterococcus faecalis is “inactive”. Further, the MIC in the test on Escherichia coli, in the test on Bacillus subtilis and in the test with Pseudomonas aeruginosa was 500 µg/mL (≈ 1.38 mM) throughout. The MIC entry with Staphylococcus aureus, with Salmonella typhimurium, in the test with Candida albicans and with Klebsiella pneumoniae was “inactive” in each case.

`COC(C)(CC1O[C@@H]2[C@H]3OC(C)(C)O[C@H]3O[C@H]12)OC` (stereo partly drawn): in the test on Enterococcus faecalis, the “growth inhibition (GI)” value was “inactive”. For the same molecule, the MIC entry in the test with Escherichia coli, in the test with Staphylococcus aureus, in the test on Bacillus subtilis, with Salmonella typhimurium, in the test with Candida albicans and in the test with Klebsiella pneumoniae was “inactive” in each case. Further, the MIC entry in the test with Pseudomonas aeruginosa was “inactive”.

Regarding `CC(=O)Cc1ccc(C=O)o1` [5-ACETYLMETHYL-FURFURAL], in the test with Enterococcus faecalis, the “growth inhibition (GI)” value was “inactive”. The MIC came out at 500 µg/mL (≈ 3.29 mM) in the test with Escherichia coli; 500 µg/mL (≈ 3.29 mM) in the test with Bacillus subtilis; 750 µg/mL (≈ 4.93 mM) in the test with Salmonella typhimurium; 2500 µg/mL (≈ 16.4 mM) with Candida albicans; 2500 µg/mL (≈ 16.4 mM) in the test with Klebsiella pneumoniae; 500 µg/mL (≈ 3.29 mM) with Pseudomonas aeruginosa. In addition, the MIC entry with Staphylococcus aureus is “inactive”.

Regarding `COC(C)(CC1O[C@H]2[C@H]3OC(C)(C)O[C@H]3O[C@H]12)OC` (stereo partly drawn), the “growth inhibition (GI)” value in the test with Enterococcus faecalis was “inactive”. The MIC result with Escherichia coli, in the test on Candida albicans and in the test with Klebsiella pneumoniae was “inactive” each time. Also, the MIC was found to be 3500 µg/mL (≈ 12.8 mM) in the test on Staphylococcus aureus, 1500 µg/mL (≈ 5.47 mM) in the test with Bacillus subtilis, 750 µg/mL (≈ 2.73 mM) in the test with Salmonella typhimurium and 750 µg/mL (≈ 2.73 mM) with Pseudomonas aeruginosa.

For the molecule `COC(C)(CC1O[C@H]2[C@H]3O[C@H](C(Cl)(Cl)Cl)O[C@H]3O[C@H]12)OC` (stereo partly drawn), in the test with Enterococcus faecalis, the “growth inhibition (GI)” value was “inactive”. In addition, the MIC in the test on Escherichia coli amounted to 250 µg/mL (≈ 0.688 mM); in the test on Bacillus subtilis, 500 µg/mL (≈ 1.38 mM); in the test on Klebsiella pneumoniae it was 2500 µg/mL (≈ 6.88 mM); in the test on Pseudomonas aeruginosa it was 500 µg/mL (≈ 1.38 mM). Besides, the MIC entry with Staphylococcus aureus, in the test on Salmonella typhimurium and in the test with Candida albicans was “inactive” throughout.
